These are literature values, as cited in patent publication US20210213050A1, “Compositions and Methods for the Removal of Extraneous Calcium Hydroxyapatite” (HENRY FORD HEALTH SYSTEM, priority 2018, published 2021).

For series [1] the following is noted: fold higher than CaHA; proposed mechanism.

On to `O=S([O-])([O-])=S.[Na+].[Na+]` [sodium thiosulfate], for which, for the setting “porcine skin samples injected subdermally with CaHA, intralesional sodium thiosulfate 0.2 mL, 12.5 g/50 mL, alone or with topical sodium metabisulfite”, the “ability to dissolve previously injected CaHA microspheres” value is listed as “able to dissolve previously injected CaHA microspheres”. For the setting “porcine skin, intralesional sodium thiosulfate, 24 hours later”, the “visible CaHA microspheres on histologic analysis of the treated area” value is recorded as “no visible CaHA microspheres were observed”.
Take `O=S([O-])([O-])=S.[Ca+2]` [calcium thiosulfate salt, calcium thiosulfate]: the “solubility of calcium thiosulfate salt relative to CaHA” value in series [1] is reported as 250- to 100,000 fold.
With `O=S([O-])S(=O)(=O)[O-].[Na+].[Na+]` [SMB, sodium metabisulfite], the “CaHA remaining after topical treatment alone” value (porcine skin, topical SMB alone, histology after approximately 24 hours) was “approximately 50%”.
